One molecule from patent US20240424019A1, “SHP1 MODIFIED DENDRITIC CELLS AND EXTRACELLULAR VESICLES DERIVED THEREFROM AND ASSOCIATED METHODS” (BOARD OF REGENTS, THE UNIVERSITY OF TEXAS SYSTEM, priority 2021, published 2024) can be followed below.

The test system of one assay is Scarb1-/-DCs. The assay is described as follows: BMDCs from Scarb1-/- versus wild-type mice. The assay is classed as cell-based, mouse. The text has this:
VitE can enter enterocytes via the SCARB1 receptor, and SCARB1 facilitates the uptake of cholesteryl esters from high-density lipoproteins. […] To determine whether SCARB1 is required for VitE-induced DC activation, we generated BMDCs from Scarb1-/-versus wild-type mice. […] Taken together, VitE enters DCs via SCARB1 and binds SHP1 to inhibit pSHP1, leading to DC activation, which increases antitumor T-cell immunity (data not shown; see Yuan et al. 2022, FIG. 4I; see also U.S. Provisional Application No. 63/252,721, FIG. 4D).

The target of a further assay is purified SHP1 (Homo sapiens, UniProt P29350). Kind of assay: Microscale thermophoresis (MST) binding assay. The settings on record: mean of triplicates; read-out: apparent dissociation constant Kd. On the procedure:
FIG. 3A: Volcano plot of reverse phase protein array (RPPA) data of mouse BMDCs treated with VitE (50 μg/ml) compared to those treated with vehicle control with tumor conditioned media (TCM) for 48 hours (n=3 independent samples). […] The grey dashed line indicates P-value of 0.05. FIG. 3B: t-SNEs by CyTOF and quantification comparing the intensity of pY564-SHP1 in TADCs from the vehicle-or VitE-treated EMT6 tumors at day 15 post-implantation. FIG. 3C: Top, SHP1 knockdown in BMDCs was effective. Bottom, CFSE-dilution analysis of OT-1 T cells co-cultured with OVA protein-pulsed BMDCs (ratio 10:1) with knockdown of SHP1 by siPtpn6 versus siCtrl (n=3). Right, quantification of OT-1 T-cell numbers under the indicated condition. FIG. 3D: The binding of VitE to purified SHP1 is analyzed by microscale thermophoresis (MST) binding assay. […] FIG. 3E: Relative tyrosine phosphatase activity of SHP1 immunoprecipitated from LPS (100 ng/ml)-activated DC2.4 cells in the presence of indicated doses of VitE (mean of triplicates). FIG. 3F: SHP1 tyrosine phosphatase activity in LPS (100 ng/ml)-activated BMDCs (n=6) treated with vehicle-or VitE (50 μg/ml). Error bars, s.e.m. ns, no significant. *P<0.05, **P<0.01. ***P<0.001, ****P<0.0001. […]

The next assay concerns pY564-SHP1. The assay is described as follows: Reverse phase protein array (RPPA) of BMDCs. Particulars: VitE 50 μg/ml, tumor conditioned media, 48 hours. The assay is classed as cell-based, mouse. As for the experimental part:
FIG. 3A: Volcano plot of reverse phase protein array (RPPA) data of mouse BMDCs treated with VitE (50 μg/ml) compared to those treated with vehicle control with tumor conditioned media (TCM) for 48 hours (n=3 independent samples). […] The grey dashed line indicates P-value of 0.05. FIG. 3B: t-SNEs by CyTOF and quantification comparing the intensity of pY564-SHP1 in TADCs from the vehicle-or VitE-treated EMT6 tumors at day 15 post-implantation. FIG. 3C: Top, SHP1 knockdown in BMDCs was effective. Bottom, CFSE-dilution analysis of OT-1 T cells co-cultured with OVA protein-pulsed BMDCs (ratio 10:1) with knockdown of SHP1 by siPtpn6 versus siCtrl (n=3). Right, quantification of OT-1 T-cell numbers under the indicated condition. FIG. 3D: The binding of VitE to purified SHP1 is analyzed by microscale thermophoresis (MST) binding assay. […] FIG. 3E: Relative tyrosine phosphatase activity of SHP1 immunoprecipitated from LPS (100 ng/ml)-activated DC2.4 cells in the presence of indicated doses of VitE (mean of triplicates). FIG. 3F: SHP1 tyrosine phosphatase activity in LPS (100 ng/ml)-activated BMDCs (n=6) treated with vehicle-or VitE (50 μg/ml). Error bars, s.e.m. ns, no significant. *P<0.05, **P<0.01. ***P<0.001, ****P<0.0001.
To explore the molecular mechanism of VitE on DCs function, we performed a reverse-phase protein array (RPPA) analysis on DCs. […]

For another assay, the system named is cancer patients. The assay is described as follows: Retrospective analysis of electronic health records of cancer patients receiving ICT (anti-PD-1/PD-L1). The assay is classed as in vivo, human. The text has this:
FIG. 1A: Percentages of deceased cancer patients taking dietary nutritional supplements during ICT treatment (Anti-PD-1/PDL1: Pembrolizumab/Atezolizumab) (n=7,667 including 1,888 breast cancer patients, 2,715 melanoma patients, and 3,064 prostate cancer patients). Each bar represents a group of patients who took one type of nutritional supplement along with ICT (Red dashed line indicated the median percentage of deceased cancer patients in this study). […] FIGS. 1C-1D: Tumor growth curves of orthotopic EMT6 TNBC tumor-bearing Balb/c mice (FIG. 1C, n=5) and orthotopic B16-GMCSF melanoma tumor-bearing C57BL/6 mice (FIG. 1D, left, n=5) treated with vehicle, 50 mg/kg of Vitamin E (VitE), […] anti-PDI (ICT), or Vitamin E+anti-PD1 (VitE+ICT) (n=5). Flow cytometry quantification of Granzyme B^+CD8^+ T cells in tumor tissues at 20 days post-implantation (FIG. 1D. right, n=5). FIG. 1E: Tumor growth curves of orthotopic B16-F10 melanoma tumor-bearing C57BL/6 mice with the indicated treatments (n=5). FIG. 1F: Tumor growth curves of orthotopic B16-FLT3L melanoma tumor-bearing C57BL/6 mice with the indicated treatments (n=5). […]
We retrospectively analyzed electronic health records for the clinical outcomes of cancer patients receiving ICT immunotherapies (anti-PD-1/PD-L1). […]

Chain of purified SHP1 (P29350 whole entry): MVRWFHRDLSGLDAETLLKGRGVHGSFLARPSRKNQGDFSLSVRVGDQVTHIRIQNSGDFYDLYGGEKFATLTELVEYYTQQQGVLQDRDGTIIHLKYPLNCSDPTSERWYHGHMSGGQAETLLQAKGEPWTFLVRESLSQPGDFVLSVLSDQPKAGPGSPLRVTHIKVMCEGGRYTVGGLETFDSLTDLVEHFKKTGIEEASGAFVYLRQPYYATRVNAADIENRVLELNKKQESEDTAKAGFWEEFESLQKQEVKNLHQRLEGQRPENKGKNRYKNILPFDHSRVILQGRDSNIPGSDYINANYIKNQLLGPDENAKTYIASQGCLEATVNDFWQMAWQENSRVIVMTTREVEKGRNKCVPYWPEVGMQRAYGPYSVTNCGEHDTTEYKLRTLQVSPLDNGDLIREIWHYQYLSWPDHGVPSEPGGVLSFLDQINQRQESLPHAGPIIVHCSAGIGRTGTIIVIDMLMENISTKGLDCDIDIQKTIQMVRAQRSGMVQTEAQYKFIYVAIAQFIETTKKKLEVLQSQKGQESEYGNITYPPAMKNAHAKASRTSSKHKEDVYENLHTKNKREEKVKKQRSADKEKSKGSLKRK

Turning to `Cc1c(C)c2c(c(C)c1O)CC[C@@](C)(CCC[C@H](C)CCC[C@H](C)CCCC(C)C)O2` [VitE, D-α-Tocopherol], the “pY564-SHP1 in Scarb1-/- DCs” value with Scarb1-/-DCs (VitE treatment, unlike wild-type DCs) is “failed to inhibit pY564-SHP1”. Also, in the assay with Scarb1-/-DCs (VitE-treated Scarb1-/- DCs, in contrast to wild-type DCs), the “proliferation of cocultured T cells” value is “did not induce proliferation of cocultured T cells”. For the same molecule, on purified SHP1, the Kd was 39 µM. Besides, the “phosphorylation of SHP1 at Y564 in DCs” value with pY564-SHP1 is on record as “decreased the phosphorylation at tyrosine 564 (Y564)”. For the same molecule, the “survival rate of cancer patients” value in the assay with cancer patients (VitE during anti-PD-1/PD-L1 treatment vs any of 14 other dietary or nutritional supplements) is “significantly improved survival rate”. Besides, the “Percentages of deceased cancer patients” value in the assay on cancer patients (took VitE during anti-PD-1/PD-L1 treatment (n=83), patients who did not 21.2% (n=7,574), Fisher P 0.0027) is on record as 8.4%.
